Results as given in patent US20220251085A1, “CYSTEINE BINDING COMPOSITIONS AND METHODS OF USE THEREOF” (University of Virginia Patent Foundation, priority 2019, published 2022).

Experiment: HPLC assay for profiling solution reactivity and stability of purine inhibitors
Type: physicochemical
Settings: N7 versus N9 tautomer, on ice 6 h
Procedure: HPLC assay for profiling solution reactivity and stability of purine inhibitors—The following reagents were prepared and stored on ice prior to use. 0.1 M solution of caffeine in acetonitrile, 1.0 M solution of amino acid mimetic (butanethiol), tetramethylguanidine (TMG), 1 M HOAc in ACN and 10 mM solution of purine fragment in ACN mixture. 500 μL of fragment solution were transferred to a dram vial on ice. To the mixture, 5.5 μL of TMG and 5.5 μL of respective amino acid mimetic were added and solutions were stirred on ice for 6 h. To monitor reactivity, 50 μL aliquots were removed at indicated time points and quenched with 10 μL of a 1:1 mixture of caffeine and HOAc. Samples were injected (1 μL) and analyzed by reverse-phase HPLC on a Shimadzu 1100 Series spectrometer (Shimadzu Corporation, Kyoto, Japan) with UV detection at 254 nm. Reaction progress was evaluated by monitoring consumption of starting material (purine fragment) normalized to caffeine standard. Chromatographic separation was performed using a Phenomenex Kinetex C18 column (2.6 μm, 50×4.6 mm; Phenomenex, Torrance, Calif., United States of America). Mobile phases A and B were composed of H2O+0.1% HOAc and ACN+0.1% HOAc, respectively. […] All purine fragment peak AUCs used for calculations were normalized to caffeine standard AUCs at respective time points to account for run-to-run variations by HPLC. […]

| Structure (SMILES) | reactivity for butanethiol |
| --- | --- |
| O=S(=O)(c1ccc(F)cc1)n1cnc2nc(Cl)nc(Cl)c21 [Pi-13, 2,6-dichloro-7-((4-fluorophenyl)sulfonyl)-7H-purine] | essentially equivalent reactivity |
| O=S(=O)(c1ccc(F)cc1)n1cnc2c(Cl)nc(Cl)nc21 [Pi-14, 2,6-dichloro-9-((4-fluorophenyl)sulfonyl)-9H-purine] | essentially equivalent reactivity |
